Cell viability data for one molecule are collected here from patent publication EP3884963A1, “NAPROXEN/DEXAMETHASONE-BASED NANOPARTICLES” (Consejo Superior de Investigaciones Científicas (CSIC), priority 2020, dated 2021).

This data set deals with RAW264.7 macrophages. Kind of data set: In vitro viability assay of NPs (AlamarBlue). Format: cell-based, murine. The following applies: RAW264.7, 24 h, all concentrations tested (NPs 0.011-0.25 mg/ml; free Dx at the concentration encapsulated); % respect to the control. How it is done: The RAW264.7 (murine macrophages) cell line was purchased from Sigma-Aldrich. RAW264.7 cells are an in vitro model useful to test the potential anti-inflammatory activity of new drugs. Cells were maintained over permissive conditions in high-glucose Dulbecco's modified Eagle's medium (DMEM; Sigma, Saint Louis, MO, USA) supplemented with 10% fetal bovine serum (FBS; Gibco, BRL), 2% L-Glutamine (Sigma, Saint Louis, MO, USA) and Penicillin-G (Sigma, Saint Louis, MO, USA) at 37 °C in a humidified incubator with 10% CO2.
2 x 10^5 live cells/mL (100 µL per well) were seeded in a 96 well-plate under permissive conditions. After 24 h, cells were exposed to different concentrations of free Dx and Dx-loaded or unloaded NSAID-based NPs suspension (0.25, 0.125, 0.09, 0.045, 0.023 and, 0.011 mg/ml) and cell viability was determined after 24 h of incubation with NPs. AlamarBlue (Invitrogen) was used to determine cell viability. Absorbance at 570 nm was measured by a Multi-Detection Microplate Reader Synergy HT (BioTek Instruments; Vermont, USA). The treatments were done in replicates (n = 8). Results of the experiments were expressed as percentage of relative cell viability (% respect to the control).
In general terms: Alamar Blue is a resazurin reagent that responds to reducing activity.

`C[C@@H]1C[C@H]2[C@@H]3CCC4=CC(=O)C=C[C@]4(C)[C@@]3(F)[C@@H](O)C[C@]2(C)[C@@]1(O)C(=O)CO` [free Dx, Dexamethasone]: the cell viability entry is “higher than 70%”.
